This note sets out measurements from patent publication US20040242627A1, “2-Iminoimidazole derivatives (1)” (priority 2001, published 2004).

Counter-ions that a name gives are not always drawn.

Assay [1] has as its system platelet rich plasma (PRP), thrombin-induced platelet aggregation. The assay is described as follows: Inhibitory effects on platelet aggregation using platelet rich plasma (thrombin-induced). The assay is classed as cell-based. As to conditions: Homo sapiens, PRP of healthy adult, thrombin 0.5-1.5 units/ml, area under aggregation curve, read-out: Thr IC50. On the procedure:
[Inhibitory Effects on Platelet Aggregation using Platelet Rich Plasma]
Blood was sampled from a healthy adult who had taken no drugs for one week, and 3.8% citric acid (a ratio of 1:9 with respect to the blood) was added as an anticoagulant. The mixture was then centrifuged at 100 g for 10 minutes at room temperature to yield platelet rich plasma (PRP). The PRP-removed blood was further centrifuged at 1000 g for 10 minutes to yield platelet poor plasma (PPP). The number of platelet was counted using a multi-parameter automatic hemocyte counter (K4500, Sysmex), and the PRP was diluted to approximately 300,000/μl with the PPP. The platelet aggregation activity was determined in the following manner using an Aggregometer (MC Medical). […] After addition of thrombin, the aggregation reaction was examined for 6 minutes and the areas under the aggregation curves were compared to determine the inhibition ratio, from which the IC50 value was calculated.

The target of a further assay is T1, PAR1 thrombin receptor (Homo sapiens, UniProt P25116).
T1 construct: homogenized with a Dounce homogenizer, and then centrifuged at 40,000 g for 60 minutes to yield platelet membrane; from tissue; host or cells: platelet membrane prepared from the blood of a healthy adult donor
T1 sequence (P25116 22-425): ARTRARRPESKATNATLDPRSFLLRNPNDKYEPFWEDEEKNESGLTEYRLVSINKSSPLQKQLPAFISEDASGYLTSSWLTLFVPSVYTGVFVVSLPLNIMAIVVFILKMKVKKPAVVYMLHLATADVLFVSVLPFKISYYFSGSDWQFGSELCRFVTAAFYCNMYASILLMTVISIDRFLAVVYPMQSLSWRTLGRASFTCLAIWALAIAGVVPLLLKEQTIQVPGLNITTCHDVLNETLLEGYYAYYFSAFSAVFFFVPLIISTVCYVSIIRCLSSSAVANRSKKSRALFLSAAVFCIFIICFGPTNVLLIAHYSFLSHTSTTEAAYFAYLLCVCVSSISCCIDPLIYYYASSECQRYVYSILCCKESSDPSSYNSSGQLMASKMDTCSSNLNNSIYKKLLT
Kind of assay: Receptor binding assay (high affinity TRAP displacement, platelet membrane). The note with it: platelet membrane of healthy adult, [3H] high affinity TRAP, 37° C. 1 hour; read-out: RBA IC50. Here is the method: Blood was sampled from a healthy adult who had taken no drugs for one week, and 3.8% citric acid (a ratio of 1:9 with respect to the blood) was added as an anticoagulant. The mixture was then centrifuged at 100 g for 10 minutes at room temperature to yield platelet rich plasma (PRP). The platelet precipitate obtained by centrifuging the PRP was homogenized with a Dounce homogenizer, and then centrifuged at 40,000 g for 60 minutes to yield platelet membrane. The platelet membrane was suspended in a solution prepared by adding DMSO (dimethyl sulfoxide) at 1% concentration to Buffer 1: a 50 mM Tris-HCl buffer containing 10 mM MgCl2 and 1 mM EGTA (ethylene glycol tetraacetic acid), and the suspension was stored at −80° C. Bovine albumin and DMSO were added to Buffer 1 at 0.1% and 20%, respectively, to make a preparation solution for the test compound. […] Next, 30 μl of liquid scintillator was added for measurement of the radioactivity of the plate using a Top Counter (Packard), the value of the radioactivity in the presence of the test compound minus non-specific binding portion was divided by the specific binding value (the value of the binding in the absence of the compound minus the non-specific binding portion) to determine the binding ratio, from which the IC50 value was calculated. […]

Consider `CC(C)(C)c1cc(C(=O)Cn2c(=N)n(Cc3ccc(N)cc3)c3ccccc32)cc(C(C)(C)C)c1O` [Example 40, 2-[3-(4-amino-benzyl)-2-imino-2,3-di-hydro-benzimida-zol-1-yl]-1-(3,5-di-tert-bu-tyl-4-hydroxy-phenyl)-ethanone dihydrochloride], for which the IC50 in assay [1] was 1300 nM; on PAR1 thrombin receptor, 260 nM.

One may read the IC50 as the point on the concentration scale where inhibition reaches its midpoint.
